Data on three molecules can be found in patent US20230031369A1, “THERAPEUTIC INTERACTIONS OF LEUCOMETHYLTHIONINIUM” (WisTa Laboratories Ltd., priority 2019, published 2023).

The subject of experiment [1] is ACh levels in the hippocampus. The experiment can be described thus: Hippocampal ACh levels with scopolamine and 100 nanomolar rivastigmine in the perfusion fluid. It is filed as in vivo, wild type mice. The procedure: Under the condition of cholinesterase inhibition used in these experiments (a very small amount of a cholinesterase inhibitor, 100 nanomolar rivastigmine, added to the perfusion fluid), ACh levels in the hippocampus rise, and when they rise strongly enough, they limit additional ACh release by activating pre-synaptic muscarinic receptors of the M2/M4 subtype (so-called negative feedback receptors).
In this situation, adding scopolamine (1 μM) to the perfusion fluid blocks these presynaptic receptors and, as a consequence, ACh levels rise by 3-5 fold. The fact that LMTM is not additive with rivastigmine in these experiments supports the conclusion that LMTM has a different mechanism of action from rivastigmine. In other words, although LMTM has been described as being a weak inhibitor of cholinesterases in high concentrations, the present effects seem to be unrelated to cholinesterase inhibition, because there is no additive effect with small quantities of rivastigmine.

The test system of experiment [2] is electron transfer chain. Conditions: acting as a supplementary electron carrier in the electron transfer chain; cited from earlier work.
For experiment [3], the system named is cholinesterase. The settings on record: reported (Pfaffendorf et al., 1997; Deiana et al., 2009); cited from earlier work.
For experiment [4], the system named is pathological tau. Conditions: in vivo (Congdon et al., 2012); cited from earlier work.
Experiment [5] in a line: ADAS-cog change after withdrawal of LMTM 8 mg/day following 18 months of treatment. It is filed as in vivo, human. The protocol:
Following 18 months of treatment with 8 mg/day LMTM, subjects were required to have a 1 month “washout” followed by cognitive assessment of change. The group was split according to whether they has received LMTM as an add-on to existing symptomatic therapy (AChEI, Memantine, collectively abbreviated to “Achmem”) or as a monotherapy.
The group was further analysed in terms of subjects who had received a high Cmax exposure or a low one.

The subject of experiment [6] is mitochondrial complex IV. The experiment in a line: Complex IV activity relative to citrate synthetase activity in brain mitochondria, L1 mice. The class given is in vivo, tau transgenic L1 mice. The procedure: (§1) Wild-type and L1 mice (n=7-16 for each group) were pre-treated with rivastigmine (0.1 or 0.5 mg/kg/day) or memantine (2 or 20 mg/kg/day) or vehicle for 5 weeks by gavage. For the following 6 weeks, LMTM (5 and 15 mg/kg) or vehicle were added to this daily treatment regime, also by gavage. Animals were tested behaviourly during weeks 10 and 11 using a problem solving task in the open field water maze and then sacrificed for immunohistochemical and other tissue analyses.

In experiment [7] the test system is acetylcholine (ACh) levels in hippocampus. The experiment in a line: Hippocampal ACh levels by microdialysis and HPLC, wild-type mice. It is filed as in vivo. Conditions: LMTM after prior treatment with rivastigmine. The protocol:
(§2) For measurement of acetylcholine (ACh) levels in hippocampus, animals (wild-type or L1) were treated with LMTM (5 mg/kg/day for 2 weeks) after prior treatment for 2 weeks with or without rivastigmine (0.5 mg/kg/day). Rivastigmine was administered subcutaneously with an Alzet minipump whereas LMTM was administered by oral gavage. Levels of ACh were measured in hippocampus using an implanted microdialysis probe and HPLC analysis of the extracellular fluid.

Experiment [8] concerns SNARE complex proteins (SNAP25, syntaxin and VAMP2). The experiment can be described thus: Immunohistochemistry of SNARE complex proteins, L1 mice. The class given is in vivo, tau transgenic L1 mice. Conditions: combination of LMTM with chronic rivastigmine pretreatment. The protocol: FIG. 3. Treatment effects of LMTM alone or following chronic pretreatment with rivastigmine in tau transgenic L1 mice on levels of (A) SNARE complex proteins (SNAP25, syntaxin and VAMP2) and (B) α-synuclein measured immunohistochemically as the mean value for hippocampus, visual cortex, diagonal band and septum. (*, p<0.05; ***, p<0.001; ****, p<0.0001).
as §1
(§3) Translating doses from mice to humans requires consideration of a number of factors. […] The higher dose of 15 mg/kg/day is generally required for LMTM to be fully effective in the L1 mouse model (Melis et al., 2015a). […] Tissue sectioned for immunohistochemistry was labelled with antibody and processed using Image J to determine protein expression densitometrically. Data are presented as Z-score transformations without units.

Experiment [9] relates to acetylcholine (ACh) levels in hippocampus. The experiment in a line: Hippocampal ACh levels by microdialysis and HPLC, L1 mice. It is filed as in vivo, tau transgenic L1 mice. The procedure:
as §2

Experiment [10] deals with T1, core tau unit of the PHF (Homo sapiens, UniProt P10636).
T1 construct: three-repeat tau fragment encompassing residues 296-390 of the 2N4R tau isoform; expressed in transfected cells; host or cells: transgenic L1 mice (NMRI strain, Thy 1 promotor), brain sections of the vertical diagonal band
T1 sequence (P10636 613-707): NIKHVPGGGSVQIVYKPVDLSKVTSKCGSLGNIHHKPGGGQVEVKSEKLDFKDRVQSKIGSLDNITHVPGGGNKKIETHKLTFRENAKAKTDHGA
The experiment in a line: Tau immunoreactivity (relative optical density) in vertical diagonal band, L1 mice. It is filed as in vivo, tau transgenic L1 mice. The procedure: FIG. 5. Treatment effects of LMTM alone or following chronic pretreatment with rivastigmine in tau transgenic L1 mice compared with vehicle-treated wild-type mice on levels of tau immunoreactivity (relative optical density) (A) and neurons immunoreactive for choline acetyltransferase (B) in vertical diagonal band. (*, p<0.05; **, p<0.01; ***, p<0.001).
as §1, §3

Experiment [11] relates to wild-type mice. The experiment in a line: Problem solving task in the open field water maze, wild-type mice. The class given is in vivo. The settings on record: LMTM. The protocol: as §1
The test system of experiment [12] is tau transgenic L1 mice. The experiment in a line: Problem solving task in the open field water maze, L1 mice. It is filed as in vivo. The protocol: FIG. 7. Effect of combined administration of Memantine and LMTM on problem solving deficits in female Line 1 mice, aged 5.5 months at the beginning of the study. Memantine was administered at 20 mg/kg and LMTM at 15 mg/kg. Mice were treated with vehicle or Memantine for 5 weeks prior to Memantine plus LMTM treatment for 6 weeks, with the mice being tested in the water maze task over weeks 10 and 11.
as §1

Experiment [13] has as its system glutamate release from brain synaptosomal preparations. The experiment can be described thus: Glutamate release from brain synaptosomal preparations, L1 mice. It is filed as in vivo, tau transgenic L1 mice.
The conditions of experiment [14]: 8 mg/day dose; split at Cmax threshold of […]; from WO2020/020751; cited from earlier work.
The test system of experiment [15] is mitochondrial complex IV. The experiment in a line: Complex IV activity in brain mitochondria, wild-type mice. The class given is in vivo. The settings on record: following LMTM treatment. The protocol: as §1
The mark [16] stands for this setting: LMTM preceded by chronic rivastigmine.

“Also recorded” adds a separate entry of the source.

On to `CN1[C@@H]2C[C@@H](OC(=O)[C@H](CO)c3ccccc3)C[C@H]1[C@@H]1O[C@@H]12` [scopolamine, reference compound], for which the “rise in ACh levels” value in [1] (scopolamine 1 μM added to the perfusion fluid containing 100 nanomolar rivastigmine) is 3-5 fold.

In the case of `CN(C)c1ccc2nc3ccc(=[N+](C)C)cc-3sc2c1` [MT, Methylthioninium], the “concentrations at which mitochondrial activity is enhanced” value in experiment [2] was 10 to 100 nM. The cholinesterase inhibition result in experiment [3] is “weak cholinesterase inhibitor”. Moreover, the “concentration range increasing clearance of pathological tau via enhancement of autophagy” value in experiment [4] is reported as 10-20 nM.

For the molecule `CN(C)c1ccc2c(c1)Sc1cc(N(C)C)ccc1N2` [LMTM, Leuco-methylthioninium bis(hydromethanesulfonate)], in [1] (wild type mice, scopolamine experiments, combination of LMTM with rivastigmine), the ACh levels entry is on record as “inhibitory; also recorded: not additive”. The “increase in ACh levels” value in experiment [1] (wild type mice, scopolamine used to increase ACh levels, LMTM alone) is recorded as “less than that seen with rivastigmine alone”. Besides, the “ADAS-cog change following LMTM withdrawal” value in experiment [5] (18 month LMTM 8 mg/day as add on to symptomatic therapy (AChEI, Memantine), high exposure (Cmax) group, p-value=0.0021) is given as −0.98; in experiment [5] (18 month LMTM 8 mg/day as add on to symptomatic therapy (AChEI, Memantine), lower exposure group, p-value=0.0855), 0.51; in [5] (18 month LMTM 8 mg/day monotherapy, high exposure (Cmax) group, p-value=0.1651), 0.73; in [5] (18 month LMTM 8 mg/day monotherapy, lower exposure group, p-value=0.0011), 2.29. The “mitochondrial complex IV activity” value in experiment [6] (LMTM alone) was “increased; also recorded: significant increases; also recorded: significant enhancement; also recorded: strong effect”; in experiment [6] (setting [16]), “None of these effects were seen; also recorded: eliminated this effect”. For the same molecule, the “reduction in basal ACh levels in hippocampus” value in [7] came to 30%. Also, the SNARE complex proteins result in experiment [8] is “levels below those seen in the absence of LMTM treatment”. Besides, the “ACh release in the hippocampus” value in experiment [9] (LMTM alone) is reported as “increased; also recorded: significant increases”; in experiment [9] (setting [16]), “None of these effects were seen”. For the same molecule, the “immunoreactivity against the core tau unit of the PHF measured by optical density” value in [10] (LMTM after prior chronic treatment with rivastigmine) is on record as “persist”; in experiment [10] (LMTM alone), “reduced”. Further, the spatial recognition memory entry in [11] is on record as “not associated with improvement”. For the same molecule, the “behavioural changes (spatial learning)” value in experiment [12] (LMTM alone) is “reversed deficits; also recorded: significant increases”. In [12] (setting [16]), the behavioural changes result is “None of these effects were seen”. Besides, the “glutamate release from brain synaptosomal preparations” value in [13] (LMTM alone) is reported as “increased; also recorded: significant increases; also recorded: restoration of normal glutamate release”; in experiment [13] (setting [16]) it was “None of these effects were seen”. In addition, the “treatment difference in high and low Cmax patients” value in [14] is −3.4 ADAS-cog units. The “complex IV activity” value in [15] is recorded as “did not show any increase; also recorded: no effect”.
